Experimental data as given in publication PMC9740702, “Binding and Detoxification of Insecticides by Potentially Probiotic Lactic Acid Bacteria Isolated from Honeybee (Apis mellifera L.) Environment—An In Vitro Study” (Cells, 2022).

How the values were obtained:
[1] = tested on: cat (Felis catus) fibroblast cells; conditions: cited from earlier work
L. plantarum ISO = tested on: L. plantarum ISO; design: method as in PMID 28578396; conditions: 295 µM, MRS medium, log phase; cited from earlier work
P. pentosaceus 14/1 = assay: Effect of pesticides on the growth of LAB (microtitration assay); assay type: cell-based, Pediococcus pentosaceus; conditions: 48 h incubation, versus non-exposed cells
Method: (§1) The experiments were conducted in transparent 96-well polystyrene microplates. The final concentrations of tested pesticides were 20, 100, and 500 µg/mL. Each well was inoculated with an overnight culture of an individual LAB strain at the density of 1.8–2.4 × 10^9 CFU/mL (6.0–8.0 according to McFarland standard). Each strain was tested in 4 replicates. Negative controls were non-exposed bacterial cells in MRS or MRS-F broth. The test was performed at 30 or 37 °C for 48 h.

[2] = tested on: Enterococcus faecium E86, Lactococcus lactis subsp. lactis ATCC 11454, L. rhamnosus GG ATCC 53103, L. lactis Garvie ATCC 19256, Leuconostoc mesenteroides subsp.; design: method as in doi:10.1016/j.lwt.2019.02.037; conditions: 500 mg/L; cited from earlier work
LAB strains [3] = tested on: LAB strains; design: method as in PMID 28324568; conditions: cited from earlier work
LAB strains [4] = assay: Binding of pesticides to the cell wall of LAB (extent of binding); conditions: whole live LAB cells, initial 100 µg/mL, 24 h
Method: Overnight cultures of LAB in MRS/MRS-F broth were centrifuged (3864× g, 15 min), and biomass was washed with sterile ultrapure water and centrifuged again. This procedure was repeated until the MRS/MRS-F broth was completely washed. Next, the biomass of whole live LAB cells was suspended in sterile ultrapure water with an individual pesticide solution (at a final concentration of 100 µg/mL, v/v) and thoroughly mixed. The density of LAB cells was 1.8–2.4 × 10^9 CFU/mL (6.0–8.0 according to McFarland standard). The positive controls (standards) were individual pesticides without LAB strains. Negative controls were LAB strains suspended in sterile ultrapure water without pesticides. The samples were incubated anaerobically at 30 °C for 24 h with continuous orbital shaking (240 r.p.m.) (LAUDA Varioshake VS 8 OE Shaker, Dr. R. Wobser Gmbh & Co., Lauda-Königshofen, […]). Finally, the supernatants containing residual pesticide were collected by centrifugation (10,733× g, 20 min) and were filtered using sterile syringe filters (0.22 μm) and frozen in sterile vials until analysis at −20 °C.
Pesticides were analyzed according to Hafeez et al. (2015) using the HPLC-DAD technique with some modifications. For the qualitative–quantitative determination of pesticides, HPLC analysis was performed using a UHPLC+ Dionex UltiMate 3000 system (Thermo Fisher Scientific Inc., Waltham, MA, USA) equipped with a UV–Vis detector (Thermo Fisher Scientific Inc., Waltham, MA, USA) and NUCLEOSIL C18 column (4.6 × 250 mm, 5 µm particle size; Macherey-Nagel, Germany). Isocratic elution was carried out with 70/30 (v/v) acetonitrile/water as the mobile phase. The flow rate was set to 1.0 mL/min, and the column temperature was 25 °C. The injection volume was 20 µL. Detection and quantification were performed with two wavelengths: 219 nm for chlorpyrifos and coumaphos and 270 nm for imidacloprid. Quantification was performed using an external standard method. All measurements were made twice.

LAB = tested on: LAB; design: method as in earlier work; conditions: concentrations above 2 ppm; cited from earlier work
P. acidilactici 8/1 = assay: Effect of pesticides on the growth of LAB (microtitration assay); assay type: cell-based, Pediococcus acidilactici; conditions: 100 µg/mL, 48 h incubation, versus non-exposed cells
Method: as §1

[5] = tested on: prostate epithelial WPM-Y1 cell line; design: method as in PMID 33456462; conditions: 24 h, MTT assay; read-out: median inhibition value; cited from earlier work

Structure (SMILES): CCOC(=O)CC(SP(=S)(OC)OC)C(=O)OCC (stereo not shown) [Malathion]
- concentration at which maximum DNA damage was recorded [1]: 45000 µM

Structure (SMILES): CCOP(=S)(OCC)Oc1nc(Cl)c(Cl)cc1Cl [chlorpyrifos]
- effect on growth of L. plantarum ISO (L. plantarum ISO): significantly reduced the growth
- bacterial growth (P. pentosaceus 14/1; 20 µg/mL): 99.94%
- effect on growth of LAB [2]: did not affect the growth
- chlorpyrifos concentration at which some LAB strains were able to grow (LAB strains [3]): > 1400 µg/mL

Structure (SMILES): CCOP(=S)(OCC)Oc1ccc2c(C)c(Cl)c(=O)oc2c1 [coumaphos]
- bacterial growth (P. pentosaceus 14/1; 500 µg/mL): 100.6%
- pesticide binding by LAB (highest extent) (LAB strains [4]): up to 57%

Structure (SMILES): ClC1=C(Cl)C2(Cl)C3C4CC(C5OC45)C3C1(Cl)C2(Cl)Cl (stereo not shown) [endrin]
- effect on lactic acid production by LAB (LAB): completely inhibited

Structure (SMILES): O=[N+]([O-])NC1=NCCN1Cc1ccc(Cl)nc1 [imidacloprid]
- bacterial growth (P. acidilactici 8/1): 101.84%
- IC50 [5]: 23 µM
- pesticide binding by LAB (highest extent) (LAB strains [4]): ≤ 36%
- pesticide binding by LAB (highest extent) (LAB strains [4]; listed as Imidacloprid): about 36%

Structure (SMILES): Cl[C@H]1[C@H](Cl)[C@@H](Cl)[C@@H](Cl)[C@H](Cl)[C@H]1Cl [lindane]
- effect on lactic acid production by LAB (LAB): completely inhibited
